Source: US20250215071A1, “Novel Mcl-1 inhibitor and combination of Mcl-1 and a BH3 mimetic, such as a Bcl-2 inhibitor” (NETRIS PHARMA, priority 2022, published 2025)

Columns and labels:
HCC70 = test: Propidium iodide incorporation (Incucyte Zoom) in HCC70 cells with netrin-1 silencing; type: cell-based; conditions: up to 24 hours
Experimental: FIG. 10. Cell death assessment by combining netrin-1 silencing and Navitoclax. To assess cell death, Propidium iodide (PI) incorporation, normalized to cell confluence, was followed in real-time up to 24 hours by Incucyte Zoom technology for scramble (siCTRL), netrin-1 (siNet), scramble (siCTRL) and Navitoclax, netrin-1 (siNet) and Navitoclax.
In addition, breast cancer HCC70 were transfected with scramble (siCTRL) or netrin-1 (siNet) targeting siRNAs. 24 hours after transfection, cells were detached, plated again in 24-well plate and treated with 0.5 µM of the Bcl-2/Bcl-XL/Bcl-w inhibitor Navitoclax (Tse et al, Cancer Res, 2008; Shoemaker et al, Clin Cancer Res, 2008). To assess cell death, propidium iodide (PI) incorporation, normalized to cell confluence, was followed in real-time up to 24 hours by Incucyte Zoom technology.

[1] = cited from earlier work
caspase-9 = test: UNC5B-induced caspase-9 activity in HeLa UNC5B cells; type: cell-based, Human; conditions: Dox; 18 hours
Experimental: FIG. 5. UNC5B-mediated Mcl-1 degradation induces MOMP and caspase-9 activation. (A): UNC5B over-expression triggers Mitochondrial Outer Membrane Permeabilization (MOMP) in a COMMD2/CRL3 complex-dependent manner. Hela cells were transfected with scramble (siCTRL), COMMD2 (siCOMMD2-1) or RBX1 (siRBX1-1) siRNAs. 24 hours after transfection, cells were treated with Dox and after further 18 hours mitochondrial depolarization quantified by 5′,6,6′-tetrachloro-1,1′,3,3′-tetraethylbenzimi-dazolylcarbocyanine iodide (JC-1) dye staining, using NucleoCounter NC3000 (n=3, **** p<0.0001, ordinary two-way ANOVA with Tukey's multiple comparisons test). Values are given as means±SEM. (B,C,D): Apoptotic cell death induced by UNC5B over-expression requires caspase-9. HeLa UNC5B cells were transfected with scramble (siCTRL) or caspase-9 (siCASP9) siRNAs and 24 hours later treated with the indicated concentrations of Dox. Propidium iodide (PI)-positive cells were assessed in real-time up to 48 hours using Incucyte Zoom instrument (C) (n=[…], Kolmogorov-Smirnov test). DNA fragmentation was assessed by FACS analysis (D) and caspase-3 was measured using caspase-3 fluorometric kit (E), both 18 hours after treatment (n=[…], **** p<0.0001, ordinary two-way ANOVA with Šidák's multiple comparisons test). Values are given as means±SEM. […] HeLa UNC5B cells were treated with Dox and 18 hours later caspase-9 and -8 activities were assessed by fluorometric kit, using specific substrates (n=3, ^nsp>0.05, *p<0.05, Mann-Whitney test, one-tailed). […] 24 hours later, cells were treated with Dox and caspase-9 activity was measured by fluorometric kit (n=3, **** p<0.0001, ordinary two-way ANOVA with Tukey's multiple comparisons test). […] 18 hours after treatment, caspase-9 activity was assessed with the fluorometric kit (n=5, *p<0.05, ** p<0.01, *** p<0.001, **** p<0.0001, ordinary two-way ANOVA with Tukey's multiple comparisons test). […] Cells were then treated with Dox and Mcl-1 protein was evaluated by western blot. […]

UNC5B-induced cell death = UNC5B-induced cell death under inhibition of neddylation; type: cell-based

For `CC1(C)CCC(c2ccc(Cl)cc2)=C(CN2CCN(c3ccc(C(=O)NS(=O)(=O)c4ccc(N[C@H](CCN5CCOCC5)CSc5ccccc5)c(S(=O)(=O)C(F)(F)F)c4)cc3)CC2)C1` [Navitoclax], the “cell death induction (PI incorporation)” value (HCC70; 0.5 µM alone (siCTRL)) was “slight effect on cell death induction” and the “cell death induction (PI incorporation)” value (HCC70; 0.5 µM combined with netrin-1 silencing (siNet)) was “quickly and strongly triggered apoptosis”.
In the case of `Cc1c(-c2c(-c3ccc(F)o3)sc3ncnc(O[C@H](Cc4ccccc4OCc4ccnn4CC(F)(F)F)C(=O)O)c23)ccc(OCCN2CCN(C)CC2)c1Cl` [S63845], the tolerability ([1]; Brennan et al., 2018) is listed as “overall good tolerability” and the B-cell population ([1]; during treatment (Brennan et al., 2018)) is listed as “decrease in the B-cell population”.
With `NS(=O)(=O)OC[C@@H]1C[C@@H](n2ccc3c(N[C@H]4CCc5ccccc54)ncnc32)C[C@@H]1O` [pevonedistat] the “UNC5B-induced caspase-9 activation” value (caspase-9) was “sufficient to prevent UNC5B-induced caspase-9 activation” and the UNC5B-induced cell death (UNC5B-induced cell death) was “prevented UNC5B-induced cell death”.
